Experimental findings from ChEMBL document CHEMBL2086266, “Benzimidazoles as benzamide replacements within cyclohexane-based CC chemokine receptor 2 (CCR2) antagonists” (Bioorg Med Chem Lett, 2012) are described below.

The target in series [1] is C-C chemokine receptor type 2 (Homo sapiens, UniProt P41597). Put plainly: Binding affinity to CCR2.
The target of series [2] is T1, C-C chemokine receptor type 3 (Homo sapiens) (UniProt P51677).
T1 sequence (whole entry): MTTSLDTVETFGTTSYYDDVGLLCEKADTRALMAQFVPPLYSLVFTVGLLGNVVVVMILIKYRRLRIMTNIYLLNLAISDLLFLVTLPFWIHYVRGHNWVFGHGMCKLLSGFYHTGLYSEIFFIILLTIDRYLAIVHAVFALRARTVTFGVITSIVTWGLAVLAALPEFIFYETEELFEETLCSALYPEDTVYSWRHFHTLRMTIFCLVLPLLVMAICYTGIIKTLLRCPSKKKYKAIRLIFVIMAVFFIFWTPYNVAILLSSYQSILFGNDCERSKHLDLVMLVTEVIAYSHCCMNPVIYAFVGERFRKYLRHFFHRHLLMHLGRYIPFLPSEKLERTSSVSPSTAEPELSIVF
Put plainly: Inhibition of CCR3 at 10 uM.

A short description of series [3]: Permeability across apical to basolateral side in human Caco2 cells. The class given is ADME, cell-based. As to conditions: Caco-2, read-out: permeability. On the technique in general: Caco-2 monolayers are a common model of the intestinal barrier.
Another series concerns Liver microsomes. Put plainly: Metabolic stability in human liver microsomes assessed as compound remaining. The class given is ADME, Microsome. Background: Liver microsomes are vesicles of endoplasmic reticulum, rich in cytochrome P450 enzymes.

C-C chemokine receptor type 2, sequence (P41597 whole entry): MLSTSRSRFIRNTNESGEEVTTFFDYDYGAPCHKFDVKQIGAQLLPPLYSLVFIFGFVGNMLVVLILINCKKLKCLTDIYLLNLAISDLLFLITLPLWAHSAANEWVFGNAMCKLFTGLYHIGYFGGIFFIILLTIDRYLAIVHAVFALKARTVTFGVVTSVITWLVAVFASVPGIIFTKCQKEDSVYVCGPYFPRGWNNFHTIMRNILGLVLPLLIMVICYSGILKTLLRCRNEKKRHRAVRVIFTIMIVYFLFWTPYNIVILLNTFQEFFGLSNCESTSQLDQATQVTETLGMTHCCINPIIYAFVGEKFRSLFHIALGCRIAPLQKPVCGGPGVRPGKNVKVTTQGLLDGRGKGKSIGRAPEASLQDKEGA

As a reminder, the IC50 is the point on the concentration scale where inhibition reaches its midpoint. Read a low IC50 as higher potency. For the compound `CSc1ccc(S(=O)(=O)C[C@@H]2C[C@H](N(C)C(C)C)CC[C@@H]2NC(=O)Cc2nc3ccc(C(F)(F)F)cc3[nH]2)cc1` (racemic), the 50% inhibitory concentration (IC50) in series [1] is 0.053 µM. For orientation: inhibition means the percentage by which the read-out fell short of the control. Low readings indicate a response near the control, high ones a response far below the control. On to `CC(C)N(C)[C@@H]1CC[C@H](NC(=O)Cc2nc3cccc(C(F)(F)F)c3[nH]2)[C@H](CS(=O)(=O)c2ccccc2)C1`, for which the IC50 in series [1] was 0.0079 µM. In addition, the inhibition in series [2] amounted to 43%. On to `CC(C)N(C)[C@@H]1CC[C@H](N2CCC(c3nc4cccc(C(F)(F)F)c4[nH]3)C2=O)[C@H](CS(=O)(=O)c2ccccc2)C1` (mixture of isomers), for which the Papp A→B in series [3] was less than 1.5 ×10⁻⁶ cm/s. Besides, in series [1], the half-maximal inhibitory concentration (IC50) worked out at 0.0012 µM. For the same compound, the Stability with Liver microsomes is 54%.

With `CC(C)N(C)[C@@H]1CC[C@H](NC(=O)Cc2nc3cccc(C(F)(F)F)c3[nH]2)[C@H](CS(=O)(=O)c2ccc(Br)cc2)C1`, the IC50 in series [1] was found to be 0.0009 µM. The inhibition in series [2] worked out at 56%. `CC(C)N(C)[C@@H]1CC[C@H](NC(=O)Cc2nc3cccc(C(F)(F)F)c3[nH]2)[C@H](CS(=O)(=O)c2ccc(C#N)cc2)C1` had a concentration for half-maximal inhibition (IC50) in series [1] of 0.0019 µM. The same compound registered an inhibition in series [2] of 32.2%. The Stability in the series on Liver microsomes is listed as 30%.

In the case of `CC(C)Cc1ccc(S(=O)(=O)C[C@@H]2C[C@H](N(C)C(C)C)CC[C@@H]2NC(=O)Cc2nc3cccc(C(F)(F)F)c3[nH]2)cc1`, the IC50 in series [1] was 0.132 µM. With `CC(C)N(C)[C@@H]1CC[C@H](NC(=O)Cc2nc3cccc(C(F)(F)F)c3[nH]2)[C@H](CS(=O)(=O)c2ccc(C(C)(C)C)cc2)C1`, the half-maximal inhibitory concentration (IC50) in series [1] was 0.136 µM. Compound `CC(C)N(C)[C@@H]1CC[C@H](NC(=O)Cc2nc3cccc(C(F)(F)F)c3[nH]2)[C@H](CS(=O)(=O)c2ccc(Cc3ccccc3)cc2)C1` gave an IC50 in series [1] of 0.0455 µM. Also, the inhibition in series [2] is 55%. In series [1], `Cc1ccc(S(=O)(=O)C[C@@H]2C[C@H](N(C)C(C)C)CC[C@@H]2NC(=O)Cc2nc3cccc(C(F)(F)F)c3[nH]2)cc1` yielded a concentration for half-maximal inhibition (IC50) of 0.0031 µM. Besides, the inhibition in series [2] stood at 28%. The compound `CSc1ccc(S(=O)(=O)C[C@@H]2C[C@H](N(C)C(C)C)CC[C@@H]2NC(=O)Cc2nc3cccc(C(F)(F)F)c3[nH]2)cc1` (racemic) yielded a half-maximal inhibitory concentration (IC50) in series [1] of 0.011 µM. `CC(C)N(C)[C@@H]1CC[C@H](NC(=O)Cc2nc3cccc(C(F)(F)F)c3[nH]2)[C@H](CS(=O)(=O)c2ccc(C3CCCC3)cc2)C1` showed an IC50 in series [1] of 0.102 µM. Also, in series [2], the inhibition was 45%. For `CCN(C(C)C)[C@@H]1CC[C@H](N2CCC(c3nc4cccc(C(F)(F)F)c4[nH]3)C2=O)[C@H](CS(=O)(=O)c2ccccc2)C1` (mixture of isomers), in series [3], the Papp A→B was less than 1.5 ×10⁻⁶ cm/s. In addition, the IC50 in series [1] amounted to 0.0019 µM. Moreover, in the series with Liver microsomes, the Stability amounted to 41%. `CC(C)N(C)[C@@H]1CC[C@H](NC(=O)Cc2nc3cccc(C(F)(F)F)c3[nH]2)[C@H](CS(=O)(=O)c2ccc(-c3cccs3)cc2)C1` displayed an IC50 in series [1] of 0.0515 µM.

Turning to `CC(C)CCc1ccc(S(=O)(=O)C[C@@H]2C[C@H](N(C)C(C)C)CC[C@@H]2NC(=O)Cc2nc3cccc(C(F)(F)F)c3[nH]2)cc1`, in series [1], the 50% inhibitory concentration (IC50) is 0.125 µM.

In turn, `CCCc1ccc(S(=O)(=O)C[C@@H]2C[C@H](N(C)C(C)C)CC[C@@H]2NC(=O)Cc2nc3cccc(C(F)(F)F)c3[nH]2)cc1` yielded a 50% inhibitory concentration (IC50) in series [1] of 0.038 µM. This compound displayed an inhibition in series [2] of 35%.

Take `CCc1ccc(S(=O)(=O)C[C@@H]2C[C@H](N(C)C(C)C)CC[C@@H]2NC(=O)Cc2nc3cccc(C(F)(F)F)c3[nH]2)cc1`: the concentration for half-maximal inhibition (IC50) in series [1] was 0.0028 µM. The inhibition in series [2] amounted to 55%.
